Patent US12331040B2 (Karyopharm Therapeutics Inc., priority 2013, dated 2025)
Like-named read-outs stand apart in the source and are kept apart here.

Assays:
Experiment in all cases: MTT cell proliferation assay
Type in all cases: cell-based
[1] = system: 3T3 cells; conditions: Mus musculus, NIH3T3, approximately 64-72 hours incubation
How it was run: (§1)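 5,000-10,000 cells/well, overnight attach; 8 conc., 1 nM–30 μM; MTT ~4 h; formazan solubilized, OD 490 nm; % inhibition = (1−(ODo/OD))×100 vs neg. control; mostly duplicate, mean±SE.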

[2] = system: MS751 cells; conditions: Homo sapiens, MS751, MS751 cells, approximately 64-72 hours incubation
How it was run: as §1

[3] = system: Z138 cells; conditions: Homo sapiens, Z-138, Z138 cells, approximately 64-72 hours incubation
How it was run: as §1

[4] = read-out: MTT Assay IC50 MS-751
[5] = read-out: MTT Assay IC50, MS-751
[6] = read-out: MTT Assay IC50, Z-138

Compound	IC50 ([1]; read-out: MTT Assay IC50 3T3) [µM]	IC50 [2, 4] [µM]	IC50 ([3]; read-out: MTT Assay IC50 Z-138) [µM]	IC50 ([1]; read-out: MTT Assay IC50, 3T3) [µM]	IC50 [2, 5] [µM]	IC50 [3, 6] [µM]
Nc1ccc(/C=C/C(=O)NCc2cc3cc(-c4cnc(C(=O)N5CCOCC5)nc4)cc(Cl)c3o2)cn1 [Compound 546, (E)-3-(6-Aminopyridin-3-yl)-N-((7-chloro-5-(2-(morpholine-4-carbonyl)pyrimidin-5-yl)benzofuran-2-yl)methyl)acrylamide]	> 10	0.1 to 5	0.1 to 5			
Nc1ccc(/C=C/C(=O)NCc2cc3cc(-c4ccc(C(=O)N5CCC(O)(C(F)(F)F)CC5)cc4)cc(C(F)(F)F)c3o2)cn1 [Compound 609, (E)-3-(6-aminopyridin-3-yl)-N-((5-(4-(4-hydroxy-4-(trifluoromethyl)piperidine-1-carbonyl)phenyl)-7-(trifluoromethyl)benzofuran-2-yl)methyl)acrylamide]	> 10	0.1 to 5	0.1 to 5			
Nc1ccc(/C=C/C(=O)NCc2cc3cc(-c4ccc(C(=O)N5CCC(F)CC5)cc4)cc(C(F)(F)F)c3o2)cn1 [Compound 567, (E)-3-(6-aminopyridin-3-yl)-N-((5-(4-(4-fluoropiperidine-1-carbonyl)phenyl)-7-(trifluoromethyl)benzofuran-2-yl)methyl)acrylamide]	> 10	0.1 to 5	0.1 to 5			
Nc1ccc(/C=C/C(=O)NCc2cc3cc(-c4ccc(C(O)c5ccc(F)cc5)cn4)cc(-c4ccc(F)cc4)c3o2)cn1 (stereo not drawn) [Compound 704, (E)-3-(6-aminopyridin-3-yl)-N-((7-(4-fluorophenyl)-5-(5-((4-fluorophenyl)(hydroxy)methyl)pyridin-2-yl)benzofuran-2-yl)methyl)acrylamide]				> 10	0.1 to 5	0.1 to 5
CC1(F)CCN(C(=O)c2ccc(-c3cc(C(F)(F)F)c4oc(CNC(=O)/C=C\c5ccc(N)nc5)cc4c3)nc2)C1 (single isomer, unassigned) [Compound 657, (Z)-3-(6-aminopyridin-3-yl)-N-((5-(5-(3-fluoro-3-methylpyrrolidine-1-carbonyl)pyridin-2-yl)-7-(trifluoromethyl)benzofuran-2-yl)methyl)acrylamide]				> 10	0.1 to 5	0.1 to 5
O=C(/C=C/c1cccnc1)NCc1cc2cc(-c3ccc(C(=O)N4CC5(COC5)C4)cc3)cc(C(F)(F)F)c2o1 [Compound 688, (E)-N-((5-(4-(2-oxa-6-azaspiro[3.3]heptane-6-carbonyl)phenyl)-7-(trifluoromethyl)benzofuran-2-yl)methyl)-3-(pyridin-3-yl)acrylamide]				0.1 to 5	0.1 to 5	0.1 to 5
Nc1ccc(/C=C/C(=O)NCc2cc3cc(-c4ccc(C(=O)N5CCC(F)(F)CC5)cc4F)cc(-c4cccc(F)c4)c3o2)cn1 [Compound 755, (E)-3-(6-aminopyridin-3-yl)-N-((5-(4-(4,4-difluoropiperidine-1-carbonyl)-2-fluorophenyl)-7-(3-fluorophenyl)benzofuran-2-yl)methyl)acrylamide]				0.1 to 5	0.1 to 5	< 0.1
Nc1ccc(/C=C/C(=O)NCc2cc3cc(-c4ccc(C(=O)N5CC6CC5CO6)cn4)cc(C(F)(F)F)c3o2)cn1 (stereo not drawn) [Compound 633, (E)-N-((5-(5-(2-oxa-5-azabicyclo[2.2.1]heptane-5-carbonyl)pyridin-2-yl)-7-(trifluoromethyl)benzofuran-2-yl)methyl)-3-(6-aminopyridin-3-yl)acrylamide]	> 10	0.1 to 5	0.1 to 5			
Nc1ccc(/C=C/C(=O)NCc2cc3cc(-c4ccc(C(=O)N5CCC(F)(F)CC5)cn4)cc(OC(F)(F)F)c3o2)cn1 [Compound 663, (E)-3-(6-aminopyridin-3-yl)-N-((5-(5-(4,4-difluoropiperidine-1-carbonyl)pyridin-2-yl)-7-(trifluoromethoxy)benzofuran-2-yl)methyl)acrylamide]				0.1 to 5	< 0.1	< 0.1
N#Cc1cccc(-c2cc(-c3ccc(C(=O)N4CCC(F)(F)CC4)cc3)cc3cc(CNC(=O)/C=C/c4ccc(N)nc4)oc23)c1 [Compound 732, (E)-3-(6-aminopyridin-3-yl)-N-((7-(3-cyanophenyl)-5-(4-(4,4-difluoropiperidine-1-carbonyl)phenyl)benzofuran-2-yl)methyl)acrylamide]				0.1 to 5	< 0.1	< 0.1
COc1ccc(Cl)cc1-c1cc(-c2ccc(C(=O)N3CCC(F)(F)CC3)cc2)cc2cc(CNC(=O)/C=C/c3ccc(N)nc3)oc12 [Compound 730, (E)-3-(6-aminopyridin-3-yl)-N-((7-(5-chloro-2-methoxyphenyl)-5-(4-(4,4-difluoropiperidine-1-carbonyl)phenyl)benzofuran-2-yl)methyl)acrylamide]				< 0.1	< 0.1	< 0.1
Nc1ccc(/C=C/C(=O)NCc2cc3cc(-c4ccc(S(=O)(=O)N5CC[C@H](F)C5)cc4)cc(Cl)c3o2)cn1 [Compound 643, (S,E)-3-(6-aminopyridin-3-yl)-N-((7-chloro-5-(4-(3-fluoropyrrolidin-1-ylsulfonyl)phenyl)benzofuran-2-yl)methyl)acrylamide]	> 10	0.1 to 5	0.1 to 5			
Nc1ccc(/C=C/C(=O)NCc2cc3cc(-c4ccc(C(=O)N5CCC(F)(F)CC5)cn4)cc(-c4ccc5cnccc5c4)c3o2)cn1 [Compound 672, (E)-3-(6-aminopyridin-3-yl)-N-((5-(5-(4,4-difluoropiperidine-1-carbonyl)pyridin-2-yl)-7-(isoquinolin-6-yl)benzofuran-2-yl)methyl)acrylamide]				> 10	0.1 to 5	0.1 to 5
Nc1ccc(/C=C/C(=O)NCc2cc3ccc(-c4ccc(C(=O)N5CCC(F)(F)CC5)cn4)cc3o2)cn1 [Compound 718, (E)-3-(6-Aminopyridin-3-yl)-N-((6-(5-(4,4-difluoropiperidine-1-carbonyl)pyridin-2-yl)benzofuran-2-yl)methyl)acrylamide]				> 10	0.1 to 5	0.1 to 5
O=C(/C=C/c1cccnc1)NCc1cc2cc(-c3ccc(S(=O)(=O)N4CCC(F)(F)CC4)cc3)cc(C(F)(F)F)c2o1 [Compound 680, (E)-N-((5-(4-((4,4-difluoropiperidin-1-yl)sulfonyl)phenyl)-7-(trifluoromethyl)benzofuran-2-yl)methyl)-3-(pyridin-3-yl)acrylamide]				> 10	0.1 to 5	0.1 to 5
Nc1ccc(/C=C/C(=O)NCc2cc3cc(-c4ccc(C(=O)N5CCC(F)(F)C5)cn4)cc(C(F)(F)F)c3o2)cn1 [Compound 612, (E)-3-(6-aminopyridin-3-yl)-N-((5-(5-(3,3-difluoropyrrolidine-1-carbonyl)pyridin-2-yl)-7-(trifluoromethyl)benzofuran-2-yl)methyl)acrylamide]	> 10	0.1 to 5	< 0.1			
Nc1ccc(/C=C/C(=O)NCc2cc3c(Cl)cc(-c4ccc(C(=O)N5CCC(F)(F)CC5)cc4)cc3o2)cn1 [Compound 714]				> 10	0.1 to 5	0.1 to 5
Nc1ccc(/C=C/C(=O)NCc2cc3cc(-c4ccc(C(=O)N5CCC(F)(F)CC5)cn4)cc(Cl)c3o2)cn1 [Compound 591, (E)-3-(6-aminopyridin-3-yl)-N-((7-chloro-5-(5-(4,4-difluoropiperidine-1-carbonyl)pyridin-2-yl)benzofuran-2-yl)methyl)acrylamide]	> 10	0.1 to 5	0.1 to 5			
O=C(/C=C/c1cccnc1)NCc1cc2cc(-c3ccc(C(=O)N4CCC(F)(F)CC4)cn3)cc(OC(F)(F)F)c2o1 [Compound 752, (E)-N-((5-(5-(4,4-difluoropiperidine-1-carbonyl)pyridin-2-yl)-7-(trifluoromethoxy)benzofuran-2-yl)methyl)-3-(pyridin-3-yl)acrylamide]				< 0.1	< 0.1	< 0.1
CN1CCN(C(=O)c2ccc(-c3cc(C(F)(F)F)c4oc(CNC(=O)/C=C/c5ccc(N)nc5)cc4c3)nc2)CC1 [Compound 565, (E)-3-(6-aminopyridin-3-yl)-N-((5-(5-(4-methylpiperazine-1-carbonyl)pyridin-2-yl)-7-(trifluoromethyl)benzofuran-2-yl)methyl)acrylamide]	0.1 to 5	< 0.1	< 0.1			
Nc1ccc(/C=C/C(=O)NCc2cc3cc(-c4ccc(C(=O)N5CCC(F)(F)CC5)cc4)cc(-c4cc(F)ccc4F)c3o2)cn1 [Compound 740, (E)-3-(6-aminopyridin-3-yl)-N-((7-(2,5-difluorophenyl)-5-(4-(4,4-difluoropiperidine-1-carbonyl)phenyl)benzofuran-2-yl)methyl)acrylamide]				0.1 to 5	< 0.1	< 0.1
Nc1ccc(/C=C/C(=O)NCc2cc3cc(-c4ccc(C(=O)N5CCC(F)(F)CC5)cn4)c(F)c(F)c3o2)cn1 [Compound 681, (E)-3-(6-aminopyridin-3-yl)-N-((5-(5-(4,4-difluoropiperidine-1-carbonyl)pyridin-2-yl)-6,7-difluorobenzofuran-2-yl)methyl)acrylamide]				> 10	> 10	5 to 10
Nc1ccc(/C=C/C(=O)NCc2cc3cc(-c4ccc(C(=O)N5CCNCC5)cc4)cc(Cl)c3o2)cn1 [Compound 601]	> 10	0.1 to 5	0.1 to 5			
